Experimental data from the NIST ThermoML archive (doi:10.1016/j.jct.2012.11.002).

Conditions: Liquid, Vibrating tube method

CCOC(=O)C(C)O (racemic) [DL-ethyl lactate]
mass density [kg/m3]
Conditions	100 kPa	2500 kPa	5000 kPa	7500 kPa	10000 kPa	20000 kPa	30000 kPa	40000 kPa	50000 kPa	60000 kPa
283.15 K	1045.06	1046.77	1048.51	1050.24	1051.88	1058.39	1064.45	1070.13	1075.5	1080.55
288.15 K	1039.64	1041.39	1043.21	1044.99	1046.74	1053.28	1059.46	1065.24	1070.74	1076.04
293.15 K	1034.25	1036.05	1037.86	1039.7	1041.5	1048.3	1054.58	1060.54	1066.26	1071.55
298.15 K	1028.78	1030.66	1032.56	1034.43	1036.23	1043.21	1049.76	1055.69	1061.53	1066.96
303.15 K	1023.32	1025.21	1027.24	1029.11	1031	1038.26	1044.91	1051.19	1056.95	1062.52
308.15 K	1017.84	1019.82	1021.87	1023.84	1025.7	1033.08	1039.92	1046.28	1052.19	1057.98
313.15 K	1012.33	1014.31	1016.42	1018.41	1020.39	1027.93	1034.97	1041.52	1047.69	1053.46
318.15 K	1006.72	1008.86	1011.01	1013.1	1015.13	1022.87	1030.04	1036.74	1042.96	1048.96
323.15 K	1001.23	1003.36	1005.56	1007.68	1009.78	1017.76	1025.13	1031.99	1038.42	1044.49
328.15 K	995.54	997.8	1000.11	1002.34	1004.46	1012.65	1020.17	1027.16	1033.75	1039.99
333.15 K	989.91	992.19	994.55	996.87	999.06	1007.62	1015.4	1022.5	1029.24	1035.71
338.15 K	984.3	986.71	989.18	991.49	993.65	1002.34	1010.27	1017.75	1024.55	1031.04

CCCCOC(=O)C(C)O (stereo not given) [butyl 2-hydroxypropanoate]
mass density [kg/m3]
Conditions	100 kPa	2500 kPa	5000 kPa	7500 kPa	10000 kPa	20000 kPa	30000 kPa	40000 kPa	50000 kPa	60000 kPa
283.15 K	992.75	994.4	996.14	997.77	999.41	1005.87	1011.69	1017.42	1022.85	1027.71
288.15 K	987.86	989.52	991.32	993.09	994.7	1001.18	1007.12	1012.83	1018.14	1023.26
293.15 K	982.96	984.69	986.5	988.29	990.02	996.69	1002.96	1008.73	1014.33	1019.37
298.15 K	977.96	979.83	981.74	983.49	985.26	992.04	998.37	1004.29	1009.82	1015.17
303.15 K	973.09	974.98	976.81	978.72	980.54	987.67	993.96	1000.06	1005.69	1011.27
308.15 K	967.74	970.01	971.95	973.85	975.59	982.84	989.43	995.62	1001.41	1007.05
313.15 K	963.05	965.11	967.03	969.06	970.96	978.27	985.03	991.43	997.35	1002.99
318.15 K	957.98	960.06	962.11	964.16	966.04	973.62	980.42	986.96	993.12	998.83
323.15 K	952.44	954.61	956.73	958.74	960.79	968.64	975.86	982.37	988.47	994.3
328.15 K	947.31	949.44	951.63	953.79	955.86	963.73	971.08	977.8	984.21	990.17
333.15 K	942.28	944.52	946.72	948.91	951.02	959.28	966.7	973.8	980.2	986.43
338.15 K	937.09	939.39	941.78	943.99	946.05	954.42	962.07	969.19	975.64	982.05
